# Patent US4855489A, “2-acyloxypropylamino derivatives, processes for the preparation thereof, and pharmaceutical compositions containing them” (Goedecke Aktiengesellschaft, priority 1986, dated 1989)
# Counter-ions that a name gives are not always drawn.
# Tests used:
# protein kinase C (PKC) = system: T1, protein kinase C (PKC); test: Inhibition of PS/DO-mediated protein kinase C activity (32P incorporation into histone H-1); assay type: biochemical, chicken; conditions: activity with PKC activators and without test substance = 100%; for inhibition at 10 µM: test substance 10^-5 mol/l; for inhibition at 100 µM: test substance 10^-4 mol/l; for inhibition at 1 µM: test substance 10^-6 mol/l
# T1 construct: this enzyme activity was enriched, starting from a chicken gizzard extract; from tissue; host or cells: chicken gizzard
# From the text: 1. Inhibition of the enzyme protein kinase C. For the elucidation of the inhibiting influence of the compounds according to the present invention of general formula (I) on the calcium- and phospholipid-dependent protein kinase (PKC), this enzyme activity was enriched, starting from a chicken gizzard extract. The two-step procedure according to purification steps described in the literature (J. Biol. Chem., 260, 15718-15722/1985) utilized the property of the enzyme of binding in the presence of calcium to cell membranes and again dissolving off by calcium chelators (EGTA). In the first purification step, there took place the binding of the PKC to membranes of the chicken gizzard extract and, in the second step, to the so-called inside out vesicles of erythrocytes. After dissolving from the erythrocyte membranes and rebuffering, the PKC preparation was present in 10 mM HEPES, 1 mM DTT and 0.1% PEG 20,000 (pH 7.5) and, under these conditions, it could be stored for several months at -70° C. without loss of activity. The activity of the enzyme was determined via the incorporation of phosphorus 32-labelled phosphate into the protein histon H-1, which is phosphorylatable by PKC. The test thereby contained the following components: 50 mM HEPES (pH 7.5), 1 mM DTT, 5 mM magnesium chloride, about 10 μM free calcium ions, 200 μg/ml histone, 5 μg/ml phosphatidylserine, 1 μg/ml 1,2-diolein, 10 μuM ATP, in each case an appropriate amount of PKC preparation and optionally a test substance. The kinase activity measured under standard conditions in the presence of PKC activators (and without test substance) was, in each case, taken as being 100% and the inhibitory action of the compounds of general formula (I) referred thereto as a percentage.
# [1] = system: gel-filtered human thrombocytes; test: Inhibition of OAG-induced platelet aggregation (aggregometer); assay type: cell-based; conditions: 3 min preincubation, OAG 5×10^-5 M, human platelets; for inhibition at 100 µM: test substance 10^-4 mol/l; for inhibition at 10 µM: test substance 10^-5 mol/l; for inhibition at 1 µM: test substance 10^-6 mol/l
# Procedure: 2. Influence of the compound of Example 1 on platelet aggregation stimulated by oleoylacetylglycerol.
# For carrying out the aggregation experiments, use was made of gel-filtered human thrombocytes. These were prepared in the following way: after centrifuging human blood for 15 minutes at 60 xg, the supernatant, i.e., the platelet-rich plasma, was used for the gel filtration. By means of the gel filtration through a column packed with Sepharose CL-2B, the platelets were transferred into a calcium-free, defined buffer medium (15 mM tris, 150 mM sodium chloride, 5.5 mM glucose, 0.2% bovine serum albumin; pH 7.4). Subsequently, the platelets were recalcified to a concentration of 7×10^-4 M calcium. The platelets were then incubated at 37° C. in an aggregometer and, after initiation of the aggregation by a stimulus, the decrease of the absorption was determined as a measure of the aggregation. As aggregation-initiating stimulus, there was used 1-oleoyl-2-acetylglycerol (OAG), an activator of the enzyme protein kinase C (J. Biol. Chem., 258, 6701-6704/1983) in a concentration of 5×10^-5 M. The aggregation achieved under these conditions was taken as being 100% control. The carrying out of the experiments on the influence of the compound of Example 1 on the OAG-stimulated aggregation took place in the following way: the platelets were first incubated for 3 minutes with the compound of Example 1 at the given concentration and subsequently the aggregation was initiated with OAG. The reduced extent of the aggregation was, in each case, calculated as a percentage of the 100% control. The results obtained are set out in Table 1 as well.
inhibition at 10 µM (protein kinase C (PKC)),inhibition at 100 µM (protein kinase C (PKC)),inhibition at 1 µM (protein kinase C (PKC)),Compound,also measured
14%,,,"CCCCCCCCCCCCCCOCC(CN(C)C)OC(C)=O (racemic) [Example 1.e, (±)-3-dimethylamino-1-tetradecyloxy-2-propyl acetate hydrochloride]",
61%,86%,24%,"CCCCCCCCCCCCCCCCCCOCC(CN(C)C)OC(C)=O (racemic) [Example 1, (±)-3-Dimethylamino-1-octadecyloxy-2-propyl acetate hydrochloride]",inhibition at 100 µM [1]: 100%; inhibition at 10 µM [1]: 48%; inhibition at 1 µM [1]: 2%
31%,,,"CCCCCCCCCCCCCCC(C)OCC(CN(C)C)OC(C)=O (racemic) [Example 1.l, (±)-3-dimethylamino-1-(2-hexadecyloxy)-2-propyl acetate hydrochloride]",
27%,,,"CCCCCCCCCCCCCCCCOCC(CN(C)C)OC(C)=O (racemic) [Example 1.f, (±)-3-dimethylamino-1-hexadecyloxy-2-propyl acetate hydrochloride]",
18%,44%,,"CCCCCCCCCCCCCCCCCCOCC(CN)OC(C)=O (racemic) [Example 2, (±)-3-Amino-1-octadecyloxy-2-propyl acetate hydrochloride]",
48%,,14%,"CCCCCCCC/C=C\CCCCCCCCOCC(CN(C)C)OC(C)=O (racemic) [Example 1.m, (±)-3-dimethylamino-1-(9-cis-octadecenyloxy)-2-propyl acetate hydrochloride]",
39%,,,"CCCCCCCCCCCCCCCCCCCCOCC(CN(C)C)OC(C)=O (racemic) [Example 1.g, (±)-3-dimethylamino-1-eicosanyloxy-2-propyl acetate hydrochloride]",inhibition at 10 µM [1]: 53%

# Second part, the molecule before the results:
Compound,inhibition at 10 µM (protein kinase C (PKC)),inhibition at 100 µM (protein kinase C (PKC)),inhibition at 1 µM (protein kinase C (PKC)),also measured
"CCCCCCCCCCCCCCCCCCOCC(CNC)OC(C)=O (racemic) [Example 2.a, (±)-3-methylamino-1-octadecyloxy-2-propyl acetate hydrochloride]",35%,,13%,
"CCCCCCCCCCCCCCCCCCSCC(CN(C)C)OC(C)=O (racemic) [Example 3, (±)-3-Dimethylamino-1-octadecylthio-2-propyl acetate hydrochloride]",22%,70%,,
"CCCCCCCCCCCCCCCCCCOCC(CN1CCCCC1)OC(C)=O (racemic) [Example 1.a, (±)-1-octadecyloxy-3-piperidino-2-propyl acetate hydrochloride]",,25%,,inhibition at 100 µM [1]: 54%
"CCCCCCCCCCCCCCCCCCOCC(CN(Cc1ccccc1)Cc1ccccc1)OC(C)=O (racemic) [Example 1.b, (±)-3-dibenzylamino-1-octadecyloxy-2-propyl acetate hydrochloride]",22%,,,
"CCCCCCCCCCCCCCCCCCOCC(CN1CCNCC1C)OC(C)=O (stereo not shown) [Example 1.d, 1-(2-methyl)-piperazinyl-3-octadecyloxy-2-propyl acetate oxalate]",61%,,18%,inhibition at 3 µM ([1]; test substance 3 × 10^-6 mol/l): 14%; inhibition at 10 µM [1]: 100%; inhibition at 1 µM [1]: 0%
"CCCOCC(CN(C)C)OC(=O)CC (racemic) [Example 1.c, (±)-3-dimethylamino-1-propoxy-2-propyl propionate oxalate]",,9%,,
